Results published in PubChem BioAssay (NCI).
Several values for one entry are separate records, joined by “and”; a condition that tells them apart may be missing. Identical values can stand only once.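 Step 1: Grow cells in 96-well plates. Step 2: Expose to compound for 48 hours at 5 concentrations. Step 3: Interpolate endpoints linearly; if unreached, use highest concentration. GI50 marks 50% less growth. TGI denotes the concentration required for complete inhibition of growth.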

Tests used:
Assay in all cases: NCI tumour cell line growth inhibition, 48 h
[1] = system: KM20L2 colon
[2] = system: P388 leukemia
[3] = system: SN12K1 renal
[4] = system: P388/ADR leukemia
[5] = system: RXF-631 renal

Row | Structure (SMILES) | TGI [1] | TGI [2] [µM] | TGI [3] [µM] | TGI [4] [µM] | TGI [5] [µM] | GI50 [1]
1 | C#C[C@]1(O)CC[C@H]2[C@@H]3CCc4cc(O)ccc4[C@H]3CC[C@@]21C | 38.9 µM | – | – | – | – | –
2 | O=P(NCCCO)(OCc1ccccc1)N(CCCl)CCCl (configuration not stated) | > 100 µM | > 100 | > 100 | > 100 | – | –
3 | C=C1C(O)C2(O)OCC34C(CC5C(C)=CC(=O)C(O)C5(C)C23)OC(=O)C(OC(=O)C/C=C/CCCCCCCC)C14 (configuration not stated) | 0.31 µM | – | 0.022 | 0.278 | – | –
4 | COc1ccc(CCn2cncn2)cc1 | > 100 µM | – | – | – | > 100 | –
5 | O=c1c2cc(O)ccc2n2nnc3ccc(NCCNCCO)c1c32 | > 100 µM and 44.9 µM | – | – | – | – | 27.1 µM and 13.4 µM
